The target of this assay is T1, human GR (Homo sapiens, UniProt P04150).
T1 sequence (P04150 1-777): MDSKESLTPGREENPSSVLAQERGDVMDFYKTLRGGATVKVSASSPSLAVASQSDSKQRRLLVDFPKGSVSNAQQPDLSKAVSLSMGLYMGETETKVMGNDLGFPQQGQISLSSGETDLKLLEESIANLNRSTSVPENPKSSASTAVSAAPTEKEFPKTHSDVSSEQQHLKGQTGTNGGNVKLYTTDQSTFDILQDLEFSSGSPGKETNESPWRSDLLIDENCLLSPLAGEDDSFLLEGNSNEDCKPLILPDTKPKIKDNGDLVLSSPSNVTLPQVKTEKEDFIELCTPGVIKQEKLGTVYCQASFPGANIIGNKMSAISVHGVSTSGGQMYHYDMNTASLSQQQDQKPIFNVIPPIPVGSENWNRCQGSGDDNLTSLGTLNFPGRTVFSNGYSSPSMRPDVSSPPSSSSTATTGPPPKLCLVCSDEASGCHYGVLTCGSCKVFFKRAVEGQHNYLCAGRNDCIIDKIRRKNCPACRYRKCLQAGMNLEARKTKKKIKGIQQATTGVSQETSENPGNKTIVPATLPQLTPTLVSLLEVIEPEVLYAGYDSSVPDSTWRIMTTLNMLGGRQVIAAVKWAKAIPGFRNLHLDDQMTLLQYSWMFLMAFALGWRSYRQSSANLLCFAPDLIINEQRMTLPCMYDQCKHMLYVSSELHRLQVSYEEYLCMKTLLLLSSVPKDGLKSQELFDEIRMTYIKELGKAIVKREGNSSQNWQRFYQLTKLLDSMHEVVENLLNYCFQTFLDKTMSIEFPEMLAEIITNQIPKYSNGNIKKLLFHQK
Put plainly: Transrepression Assay (GITAR), TNFα-β-lactamase reporter in U937 cells. In kind it is cell-based. Further details: U937 cells contain an endogenous glucocorticoid receptor (GR); endogenous in cells; host or cells: U937 cells stably transfected with the TNF-alpha promoter/beta-lactamase reporter. The following applies: for GITAR > GRAMM % SEP: GITAR Emax minus GRAMMER Emax; for pEC50: U937 cells, inflection point, read-out: Transrepression U937 Cells GITAR IP. The gist of the method: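 Repression normalised to 100 nM dexamethasone (100%), measured with CCF2-AM β-lactamase substrate after 70–90 min at room temperature. Stably transfected U937 cells were exposed to compound 30–45 min, then to PMA (5 ng/ml final) plus LPS (100 ng/ml final) overnight (~18 hr), 37° C.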

Where [1] appears, read: U-937, U937 cells, maximum activity, read-out: Transrepression U937 Cells GITAR Emax.
The mark [2] stands for this setting: U-937, activity repressed by 100 nM dexamethasone alone set as 100%, read-out: maximal activity in the transrepression (GITAR) assay.

pEC50: −log10 of the molar value. Read-outs that look alike come from different tables or passages of the source.

The record followed here is patent publication US8299048B2, “Hexahydrocyclopentyl[f]indazole sulfonamides and derivatives thereof as selective glucocorticoid receptor modulators” (Merck Sharp & Dohme Corp., priority 2008, dated 2012).

For `C[C@H](O)CN(C[C@H]1CCC2=Cc3c(cnn3-c3ccc(F)cc3)C[C@@]21C)S(=O)(=O)Cc1ccccc1C(N)=O` [Example 185, 2-[({{[(4αR,5S)-1-(4-fluorophenyl)-4α-methyl-1,4,4α,5,6,7-hexahydrocyclopenta[f]indazol-5-yl]methyl}[(2S)-2-hydroxypropyl]amino}sulfonyl)methyl]benzamide], the “GITAR > GRAMM % SEP” value is reported as 43.1% and the pEC50 was 6.17. In addition, the Emax under setting [1] was determined as 63%. In addition, the Emax under setting [2] was above 5%.
As to `COC(=O)c1ccccc1S(=O)(=O)N(C[C@H]1CCC2=Cc3c(cnn3-c3ccc(F)cc3)C[C@@]21C)C[C@@H](C)O` [Example 186, methyl 2-({{[(4αR,5S)-1-(4-fluorophenyl)-4α-methyl-1,4,4α,5,6,7-hexahydrocyclopenta[f]indazol-5-yl]methyl}[(2R)-2-hydroxypropyl]amino}sulfonyl)benzoate], the “GITAR > GRAMM % SEP” value came to 27.7% and the pEC50 was 6.16. For the same molecule, the Emax under setting [1] was 63.5%. Further, the Emax under setting [2] was above 5%.
The matching figures for `COC(=O)c1ccccc1S(=O)(=O)N(C[C@H]1CCC2=Cc3c(cnn3-c3ccc(F)cc3)C[C@@]21C)C[C@H](C)O` [Example 187, methyl 2-({{[(4αR,5S)-1-(4-fluorophenyl)-4α-methyl-1,4,4α,5,6,7-hexahydrocyclopenta[f]indazol-5-yl]methyl}[(2S)-2-hydroxypropyl]amino}sulfonyl)benzoate]: 35.6%, 6.41, 71.5% and above 5%.
On to `COC(=O)c1ccccc1CS(=O)(=O)N(CCc1ccccc1F)C[C@H]1CCC2=Cc3c(cnn3-c3ccc(F)cc3)C[C@@]21C` [Example 188, methyl 2-{[([2-(2-fluorophenyl)ethyl]{[(4αR,5S)-1-(4-fluorophenyl)-4α-methyl-1,4,4α,5,6,7-hexahydrocyclopenta[f]indazol-5-yl]methyl}amino)sulfonyl]methyl}benzoate], for which the “GITAR > GRAMM % SEP” value came to 30.1% and the pEC50 was 6.72. Moreover, under setting [1], the Emax is 60.5%. Also, under setting [2], the Emax was above 5%.
As for `COC(=O)c1ccccc1S(=O)(=O)N(CCc1ccccc1F)C[C@H]1CCC2=Cc3c(cnn3-c3ccc(F)cc3)C[C@@]21C` [Example 189, methyl 2-[([2-(2-fluorophenyl)ethyl]{[(4αR,5S)-1-(4-fluorophenyl)-4α-methyl-1,4,4α,5,6,7-hexahydrocyclopenta[f]indazol-5-yl]methyl}amino)sulfonyl]benzoate], the “GITAR > GRAMM % SEP” value is 15.7% and the pEC50 was 6.72. For the same molecule, under setting [1], the Emax is 81%. The Emax under setting [2] was above 5%.
On the same counts, the results for `C[C@]12Cc3cnn(-c4ccc(F)cc4)c3C=C1CC[C@@H]2CN(CCc1ccccc1F)S(=O)(=O)Cc1ccccc1C(N)=O` [Example 190, 2-{[([2-(2-fluorophenyl)ethyl]{[(4αR,5S)-1-(4-fluorophenyl)-4α-methyl-1,4,4α,5,6,7-hexahydrocyclopenta[f]indazol-5-yl]methyl}amino)sulfonyl]methyl}benzamide] are 12.4%, 6.41, 77.4% and above 5%.
On the same counts, the results for `C[C@]12Cc3cnn(-c4ccc(F)cc4)c3C=C1CC[C@@H]2CN(CC1CCCO1)S(=O)(=O)c1ccc(C(N)=O)cc1` (stereo partly drawn) [Example 191, 4-{[{[(4αR,5S)-1-(4-fluorophenyl)-4α-methyl-1,4,4α,5,6,7-hexahydrocyclopenta[f]indazol-5-yl]methyl}(tetrahydrofuran-2-ylmethyl)amino]sulfonyl}benzamide] are 10.1%, 6.36, 37.2% and above 5%.
On the same counts, the results for `C[C@]12Cc3cnn(-c4ccc(F)cc4)c3C=C1CC[C@@H]2CN(Cc1ccccc1F)S(=O)(=O)c1cccc(C(N)=O)c1` [Example 192, 3-[((2-fluorobenzyl){[(4αR,5S)-1-(4-fluorophenyl)-4α-methyl-1,4,4α,5,6,7-hexahydrocyclopenta[f]indazol-5-yl]methyl}amino)sulfonyl]benzamide] are 23.2%, 5.54, 27.5% and above 5%.
With `C[C@]12Cc3cnn(-c4ccc(F)cc4)c3C=C1CC[C@@H]2CN(CCCc1ccccc1)S(=O)(=O)CC(F)(F)F` [Example 193, 2,2,2-trifluoro-N-{[(4αR,5S)-1-(4-fluorophenyl)-4α-methyl-1,4,4α,5,6,7-hexahydrocyclopenta[f]indazol-5-yl]methyl}-N-(3-phenylpropyl)ethanesulfonamide], the “GITAR > GRAMM % SEP” value was found to be 18.6% and the pEC50 is 6.77. In addition, the Emax under setting [1] amounted to 74%. In addition, under setting [2], the Emax was above 5%.
Take `Cc1noc(C)c1S(=O)(=O)N(CCCc1ccccc1)C[C@H]1CCC2=Cc3c(cnn3-c3ccc(F)cc3)C[C@@]21C` [Example 194, N-{[(4αR,5S)-1-(4-fluorophenyl)-4α-methyl-1,4,4α,5,6,7-hexahydrocyclopenta[f]indazol-5-yl]methyl}-3,5-dimethyl-N-(3-phenylpropyl)isoxazole-4-sulfonamide]: the “GITAR > GRAMM % SEP” value was 14.4% and the pEC50 was 6.54. Also, under setting [1], the Emax is 56.2%. Also, the Emax under setting [2] was above 5%.
The matching figures for `C[C@]12Cc3cnn(-c4ccc(F)cc4)c3C=C1CC[C@@H]2CN(CCCc1ccccc1)S(=O)(=O)c1ccccc1F` [Example 195, 2-fluoro-N-{[(4αR,5S)-1-(4-fluorophenyl)-4α-methyl-1,4,4α,5,6,7-hexahydrocyclopenta[f]indazol-5-yl]methyl}-N-(3-phenylpropyl)benzenesulfonamide]: 17.1%, 6.31, 30% and above 5%.
In the case of `C[C@]12Cc3cnn(-c4ccc(F)cc4)c3C=C1CC[C@@H]2CN(CCc1ccccn1)S(=O)(=O)Cc1ccccc1C(N)=O` [Example 196, 2-({[{[(4αR,5S)-1-(4-fluorophenyl)-4α-methyl-1,4,4α,5,6,7-hexahydrocyclopenta[f]indazol-5-yl]methyl}(2-pyridin-2-ylethyl)amino]sulfonyl}methyl)benzamide], the “GITAR > GRAMM % SEP” value is given as 3.7% and the pEC50 was 6.41. The Emax under setting [1] is 40.3%. The Emax under setting [2] is above 5%.
On the same counts, the results for `CC([C@H]1CCC2=Cc3c(cnn3-c3ccc(F)cc3)C[C@@]21C)N(CCc1ccccn1)S(=O)(=O)Cc1cccnc1` (stereo partly drawn) [Example 197, N-{1-[(4αR)-1-(4-fluorophenyl)-4α-methyl-1,4,4α,5,6,7-hexahydrocyclopenta[f]indazol-5-yl]ethyl}-1-pyridin-3-yl-N-(2-pyridin-2-ylethyl)methanesulfonamide] are 1.8%, 5.98, 45.5% and above 5%.
The matching figures for `C[C@]12Cc3cnn(-c4ccc(F)cc4)c3C=C1CC[C@@H]2CN(CCO)S(=O)(=O)Cc1ccccc1C(N)=O` [Example 198, 2-({[{[(4αR,5S)-1-(4-fluorophenyl)-4α-methyl-1,4,4α,5,6,7-hexahydrocyclopenta[f]indazol-5-yl]methyl}(2-hydroxyethyl)amino]sulfonyl}methyl)benzamide]: 7.3%, 5.94, 15.5% and above 5%.
The matching figures for `CC(C)(O)CN(C[C@H]1CCC2=Cc3c(cnn3-c3ccc(F)cc3)C[C@@]21C)S(=O)(=O)c1ccccc1F` [Example 199, 2-fluoro-N-{[(4αR,5S)-1-(4-fluorophenyl)-4α-methyl-1,4,4α,5,6,7-hexahydrocyclopenta[f]indazol-5-yl]methyl}-N-(2-hydroxy-2-methylpropyl)benzenesulfonamide]: 22.2%, 6.30, 80.8% and above 5%.
